From US20050129779A1, “Use of a hsp inducing compound to limit the side effects of retinoids” (priority 2002, published 2005)

What was measured:
HSP 70 [1] = experiment: Immuno-blot of HSP in cultured human fibroblasts; type: cell-based; settings: 10^-7 M ATRA, 3% extract
Description: […] Several different experimental conditions were used for the fibroblasts.
The conditions that were tested on the fibroblasts were as follows: • Control condition (non-treated cells) • Cells treated with 10^−7M all-trans retinoic acid (ATRA) • Cells treated with 3% of the extract from example 1 • Cells treated with 10^−7 M all-trans retinoic acid and 3% of the extract from example 1.
The results illustrated in FIGS. 1 and 2 represent the quantities of HSP obtained by immunoblotting carried out on the human fibroblasts following the treatments in various culture conditions.

HSP 70 [2] = experiment: Ex vivo immunostaining of HSP 70 in cultured skin samples; type: cell-based; settings: ex vivo skin cultured 5 days; 10^-7 retinoic acid; 1-3% extract
Excerpt: Ex vivo immunostaining studies have enabled it to be determined that HSP 70 is expressed in skin samples which have been cultured for 5 days. The samples were either treated or untreated with 10^−7retinoic acid plus 1-3% of the extract from example 1.

IL-1 alpha = experiment: Interleukin-1 ELISA in HaCat keratinocytes and fibroblasts (inflammation induced by retinoids); type: cell-based, human; settings: 10^-7 M ATRA 6 days, 3% extract 48 hours
Description: The Artemia extract from example 1 was used at 3% in in vitro tests in order to show the benefits of applying it in combination with retinoids, with the overall goal of diminishing the inflammation induced by retinoids.
Human HaCat keratinocytes and fibroblasts were cultured in 100mm diameter culture dishes. When the cells reached 50% confluence, they were either treated with 3% of extract from example 1 or not, for 48 hours. In a parallel manner, concentrations of 10^−7M all-trans retinoic acid (ATRA) were, or were not, applied.
The following experimental conditions were used for the different treatment groups: • Control condition (no treatment); • Extract from example 1 for 48n hours; • All-trans retinoic acid (ATRA) for 6 days; • All-trans retinoic acid (ATRA) for 6 days of which 48 hours were treated in combination with the extract from example 1.
After six days in culture, the dose of Interleukin-1 was determined using ELISA, to show evidence of an inflammatory reaction.

HSP 70 [3] = settings: ex vivo skin irradiated with 200 mJ/cm^2 UVB; 10^-7 retinoic acid; 1-3% extract
Description: The samples were either treated or untreated with 10^−7retinoic acid plus 1-3% of the extract from example 1. The skin samples were subsequently fixed in 9% formol salt for 10 hours. They were then embedded in paraffin using an automated method. 2-3 urn sections were then cut to be used for immunostaining.
The experiments in example three were repeated except that the skin samples were irradiated with a 200 mJ/cm^2 dose of UVB.

## CC1=C(/C=C/C(C)=C/C=C/C(C)=C/C(=O)O)C(C)(C)CCC1 [retinoic acid, all-trans retinoic acid]
HSP 70 [1]; aging human fibroblasts (printed: cultured)
  HSP 70 expression (immuno-blot, FIG. 2): slightly augmented
HSP 70 [1]; young human fibroblasts (printed: cultured for 24 hours)
  HSP 70 expression (immuno-blot, FIG. 1): diminished
HSP 70 [2]
  HSP 70 expression in skin samples (immunostaining): clearly express less HSP 70 than non-treated skin samples
IL-1 alpha
  IL-1 alpha concentration / inflammatory response (ELISA, FIG. 3): significantly augmented
HSP 70 [3]
  HSP 70 expression in skin samples following UV stress (immunostaining): clearly diminished
